Assay results as given in patent EP2402030A1, “Linear IgE peptide epitopes of celery allergen api 1” (Charité Universitätsmedizin Berlin, priority 2010, dated 2012).

System: human IgE antibodies
Assay: Human IgE antibody binding to SPOT-synthesized 12-meric Api g 1.0101 peptide arrays on N-CAPE cellulose membranes, probed with sera, HRP-labeled anti-human IgE, chemiluminescence
Conditions: for celery allergic individuals responding to the peptide (positive IgE antibody binding spot) / number of celery allergic patients whose sera IgE antibodies bind the sequence / recognition by sera of celery allergic patients: sera of 21 celery allergic patients; for celery allergic individuals responding to the peptide (positive IgE antibody binding spot) / IgE binding in sera of healthy controls / recognition by sera of celery allergic patients: diluted 1:5; for celery allergic individuals responding to the peptide (positive IgE antibody binding spot): positive if SInorm above the membrane's cut off value; for IgE binding in sera of healthy controls: sera of 17 healthy subjects
Excerpt: The protein sequence of the major allergen in celery Api g 1.0101 (UniprotKB/Swissprot entry P49372) was dissected into sets of overlapping peptides (pepscan). Subsequently, these sequences were synthesized as peptide arrays on cellulose membranes according to SPOT technology. A highly specific secondary anti-human IgE antibody with minimum cross-reactivity towards cellulose membrane-bound peptides was employed.
Synthetic arrays were probed with sera randomly chosen from a well described cohort of subjects, including 21 patients with a defined allergic reaction to celery and 17 healthy individuals. Captured human IgE antibodies were detected by a HRP-labeled secondary antibody and binding was visualized by chemiluminescence.
The optimal conditions for screening the sera of 21 celery allergic patients and 17 healthy controls were as follows: (i) replica of a 12-meric pepscan with a shift of three amino acids covering the Api g 1.0101 sequence synthesized on high-loaded N-CAPE membranes (640 nmol/cm2 - 760 nmol/cm2); (ii) prior to treatment with sera, membranes were blocked with the Sigma-Genosys blocking buffer for 2 h at room temperature; (iii) arrays were probed for 16 h at 4°C with diluted sera (1:5) for IgE antibody binding; (iv) the captured human IgE antibodies were detected with the HRP-labeled anti-human IgE antibody (A 9667, Sigma-Aldrich) and visualized by chemiluminescence; (v) spot signal intensities were measured on a LumiImager and processed with the LumiAnalyst software. To check the reproducibility of our screening procedure, three different peptide arrays were incubated and evaluated for each person (allergic and healthy).
Sera binding patterns could be reproduced in repeated incubation experiments. Although inter-membrane absolute spot signal intensities differed, the relative differences between spot signal intensities were nearly the same. This enabled comparison of spot signal intensities from different membranes by applying an additional normalization procedure. We defined an IgE antibody binding spot as positive if its normalized signal intensity (SInorm) was higher than the calculated cut off value of the appropriate membrane.
Human IgE antibody binding studies: The spotted peptide arrays were prewashed with ethanol (1 × 10 min), washed with Tris-buffered saline (TBS), pH 8.0 (3 × 10 min), and blocked for 2 h at room temperature with blocking buffer. The membranes were incubated with the patients' sera (dilution 1:5) in blocking buffer overnight at 4°C, washed with TBS, followed by a second incubation with anti-human IgE antibody (ε-chain specific) conjugated with horse radish peroxidase (HRP) (A 9667, Sigma-Aldrich, St. Louis, USA) in blocking buffer for 2 h at room temperature. To remove excess antibody the membrane was washed with TBS (3x10 min). Detection was performed with Uptilight HRP blot chemiluminescent substrate (Uptima, Interchim, Montiuçon Cedex, France) with an exposure time of 2 min. The signal intensities were recorded as Biomedical Light Units (BLU) by a Lumi Imager™ (Boehringer Mannheim GmbH, Mannheim, Germany) using the LumiAnalyst software.
Measurement of spot signal intensities: Analysis and measurement of spot signal intensities were executed with the LumiAnalyst software, version 3.1 (Boehringer Mannheim GmbH, Mannheim, Germany). The spot signal was calculated from a circular region around the spot center detected on the image. To guarantee uniform spot signal assessment, and reduce signal variations caused by the background, we choose the background correction method in the LumiAnalyst software. This method allows local background correction when calculating the BLU of each spot. The background values of each spot were determined from BLU values around the spot with a safety margin and normalized to the area of the spot. Comparing replicas of several membranes, incubated under identical conditions, we found signal intensity deviations of a factor of 11. […]

Row | Sequence | celery allergic individuals responding to the peptide (positive IgE antibody binding spot) [%] | IgE binding in sera of healthy controls | number of celery allergic patients whose sera IgE antibodies bind the sequence | also measured
1 | IITLPDGGPITT [compound 19, 12-meric peptide of Api g 1.0101] | 29 | – | – | –
2 | PTADGGSICKTT [compound 36, 12-meric peptide of Api g 1.0101] | 43 | – | – | –
3 | VLVPTADGGSIC [peptide 35, 12-meric peptide of Api g 1.0101] | 100 | not reacting with any sera IgE antibody from healthy subjects | at least six | spot signal intensity (average spot signal intensity, Fig. 3): highest measured spot signal intensity; IgE binding in sera of healthy controls (listed as VLVPTADGGSIC): no binding; recognition by sera of celery allergic patients: recognized by the sera from all the celery allergic patients; recognition by sera of celery allergic patients (listed as VLVPTADGGSIC): recognized by all sera of celery allergic patients

More lines, main results first:

Row | celery allergic individuals responding to the peptide (positive IgE antibody binding spot) [%] | Sequence | IgE binding in sera of healthy controls | number of celery allergic patients whose sera IgE antibodies bind the sequence | also measured
4 | 38 | GDGGPGTLKIIT [compound 16, 12-meric peptide of Api g 1.0101] | – | – | –
5 | 29 | GGPITTMTLRID [compound 21, 12-meric peptide of Api g 1.0101] | – | – | –
6 | 38 | IFQGFVIDVDTV [peptide 7, 12-meric peptide of Api g 1.0101] | not reacting with any sera IgE antibody from healthy subjects | at least six | –
7 | 29 | NHVVLVPTADGG [peptide 34, 12-meric peptide located in the C-terminal region of Api g 1.0101] | not reacting with any sera IgE antibody from healthy subjects | at least six | –
